# Results as given in patent US12364699B2, “Method of treating hair loss disorders” (Sun Pharmaceutical Industries, Inc., priority 2023, dated 2025).
# Legend:
# [1] = Renal impairment study: single dose PK of CTP-543 and metabolites C-21714, C-21717; details: single 12 mg oral dose of CTP-543; normal renal function N = 8; geometric mean (geometric CV %)
# Excerpt: The study enrolled 8 subjects in the normal renal function cohort, and 8 subjects in the moderate impaired renal function cohort.
# The primary endpoint of this study was single dose PK exposure parameters: Cmax, AUC(0-Tlast), and AUC(0-∞).
# The secondary endpoints of this study were: • Adverse Events, clinical laboratory findings, physical examinations, ECGs, and vital signs. • Other PK parameters, such as, but not limited to: Tmax, λz, t1/2, CL/F, and Vz/F.
# (§1) All subjects had samples collected for PK.
# PK parameters were determined using non-compartmental analysis (NCA) methods based on individual plasma concentration-time data for all PK analytes.
# plasma protein = test: Renal impairment study: plasma protein binding of CTP-543; format: in vitro ADME, human; details: 2 hours post-dose; moderate renal impairment vs matched controls with normal renal function
# Excerpt: as §1
# [2] = system: adult subjects with moderate to severe AA; test: Phase III trial: Hair Satisfaction Patient Reported Outcome (SPRO); format: in vivo, human; details: for percentage of subjects with a ≥2 point change from baseline on SPRO: 12 mg BID
# Excerpt: The SPRO is a single-item questionnaire answered by the subject and designed to measure how satisfied Alopecia Areata subjects are with their hair at the time of the assessment. Subjects answer questions on a scale of 1 to 5, representing “Very satisfied” to “Very dissatisfied.” Satisfaction categories 1-5 of the scale were defined as follows: 1=“Very Satisfied”; 2=“Satisfied”; 3=“Neither Satisfied nor Dissatisfied”; 4=Dissatisfied”; and 5=“Very Dissatisfied”.
# The results of the SPRO was analyzed in three different ways: 1) the percentage of responders, 2) the change from baseline, and 3) the percentage of subjects achieving a ≥2.0 point change from baseline.
# A Phase III trial was conducted to assess the efficacy and safety of CTP-543 in adult subjects with moderate to severe AA. Approximately 440 adult male and female subjects 18 to 65 years of age, inclusive, with moderate to severe AA participated in the study. Subjects with definitive diagnosis of AA, and at least 50% hair loss, as defined by a SALT score ≥50, who met all of the inclusion criteria and none of the exclusion criteria participated in the study.
# The Screening Period lasted up to 28 days prior to initiation of study drug. […] Randomization was stratified by scalp hair loss into 1 of the following 2 categories: 1) partial scalp hair loss (SALT ≥50 and <95), 2) complete or near complete scalp hair loss (SALT ≥95).
# The key secondary efficacy endpoints were the percentage of responders (defined as “satisfied” or “very satisfied”) on the Hair Satisfaction Patient Reported Outcome (SPRO) scale at Week 24, 20, 16, 12, and 8.
# The Hair Satisfaction Patient Reported Outcome (SPRO) was also determined based on the 5-point SPRO scale from baseline through Week 24 among primary endpoint responders. The subjects that received a SALT score ≤20 at Week 24 in the THRIVE-AA1 and THRIVE-AA2 trials were included in the analysis. […]
# The SPRO was evaluated in 3 different ways: the percentage of responders, the change from baseline, and the percentage of subjects achieving a ≥2.0 point change from baseline.
# subjects with AA [3] = test: Open-label extension (OLE) studies: SALT score; format: in vivo, human; details: 12 mg BID in OLE, placebo in the earlier studies, 52 weeks
# Excerpt: Subjects completing 24 weeks of treatment with […]
# (§2) The qualifying clinical trials including the following: 1. NCT03137381; 2. NCT03811912; 3. NCT03941548; 4. NCT04784533; 5. NCT04518995; and 6. NCT04797650 (all available a at https://clinicaltrials.gov).
# The OLE Efficacy Population is defined as all subjects who received at least one dose of deuruxolitinib and had at least one post-baseline SALT assessment in OLE. The data analyses include subjects' data from the qualifying trial. Missing SALT scores were not imputed. The number of subjects decreases over time due to missing data, patient discontinuations, or subjects not yet at the later timepoints. Any SALT data after a qualifying dose change in the OLE was censored for all figures included here, except those showing the overall treatment sequence. A “qualifying dose change” referred to herein can be placebo in any qualifying trial to any dose of deuruxolitinib in the OLE (includes subjects who switched doses), or any dose of deuruxolitinib in a qualifying trial to any dose of deuruxolitinib in the OLE. Various analyses using SALT scores were conducted to best estimate the overall long-term effect of deuruxolitinib considering the issues with dose changes and decreasing patient numbers over time. “Any Dose” analysis tracks all active subjects over time pooled across the two doses. […]
# subjects with AA [4] = test: Open-label extension (OLE) studies: safety; format: in vivo, human
# Excerpt: as §2
compound,measurement,setting,value
"[2H]C1([2H])C([C@@H](CC#N)n2cc(-c3ncnc4[nH]ccc34)cn2)C([2H])([2H])C([2H])([2H])C1([2H])[2H] [CTP-543, (R)-3-(4-(7H-pyrrolo[2,3-d]pyrimidin-4-yl)-1H-pyrazol-1-yl)-3-(cyclopentyl-2,2,3,3,4,4,5,5-d8) propanenitrile]",Clast,[1],0.898 (116.3) ng/mL
same,"plasma protein binding, difference between cohorts",plasma protein,no meaningful differences
same,SPRO Responders: Yes,"[2]; 12 mg BID (N = 127), Week 24, non-missing data",62 (51.7) n (%)
same,percentage of subjects with a ≥2 point change from baseline on SPRO,"[2]; week 16, non-missing data",57.4%
same,percentage of subjects with a ≥2 point change from baseline on SPRO,"[2]; week 24, non-missing data",61.7%
same,mean SALT score,subjects with AA [3],43.0
same,number of serious treatment-related TEAEs,subjects with AA [4]; OLE studies,remains low
same,tolerability,subjects with AA [4]; OLE studies,generally well tolerated
same,subjects with related thrombotic events,"subjects with AA [4]; all at the 12 mg BID dose, following ≥52 weeks of dosing",four
same,treatment-emergent adverse event findings,subjects with AA [4]; integrated analyses,consistent with the safety profiles observed for other JAK inhibitors
